Ends that are not written are not given here.
Experiments:
[1] = test system: E. coli clinical isolate E1; assay: microbe, parasite or virus in culture
Protocol: (§1) The minimum inhibitory concentrations (MICs) of the AMPs were determined using the microbroth dilution technique ([van Harten et al., 2021]). One hundred microliters of bacterial suspension at a concentration of 1×10^6 CFU/mL was pipetted into a 96-well plate. Then, 100 μL of AMP or gentamicin at various concentrations was added, while the bacterial suspension without AMPs and blank medium were used as controls.

[2] = test system: E. coli strains (ATCC 8739 and MDR clinical isolates); assay type: cell-based, Escherichia coli; details: ATCC 8739, 18 h
Protocol: as §1

[3] = test system: E. coli clinical isolate E12; assay: microbe, parasite or virus in culture; assay type: cell-based, Escherichia coli
Protocol: as §1

[4] = test system: E. coli clinical isolate E16; assay: microbe, parasite or virus in culture; assay type: cell-based, Escherichia coli
Protocol: as §1

[5] = test system: E. coli clinical isolate E18; assay: microbe, parasite or virus in culture; assay type: cell-based, Escherichia coli
Protocol: as §1

[6] = test system: E. coli clinical isolate E9; assay: microbe, parasite or virus in culture; assay type: cell-based, Escherichia coli
Protocol: as §1

[7] = test system: E. coli clinical isolate E14; assay: microbe, parasite or virus in culture; assay type: cell-based, Escherichia coli
Protocol: as §1

E. coli (ATCC 8739) [8] = assay: microbe, parasite or virus in culture; assay type: cell-based, Escherichia coli
Protocol: as §1

E. coli (ATCC 8739) [9] = assay type: cell-based, Escherichia coli; details: ATCC 8739, 1 h
Protocol: The MICs of the AMPs against E. coli (ATCC 8739) at different temperatures and physiological salt concentrations were evaluated. The thermal stability of the AMPs was assessed by incubating them at a concentration of 500 μg/mL for 1h at 0, 37, and 100°C, using untreated AMPs as a control. The salt ion stability of the AMPs was determined by incubating them at a concentration of 500 μg/mL in solutions of NaCl (150 mM), KCl (4.5 mM), MgCl2 (1 mM), and CaCl2 (2.5 mM) for 1h, using untreated samples as controls. The changes in the MICs of the AMPs were assessed following these experimental procedures.

[10] = test system: E. coli clinical isolate E1; assay type: cell-based; parameters: key: R: resistant strains; I: intermediate strains; S: sensitive strains; details: 6 mm antibiotic paper on LB agar, 1×10^6 CFU/mL, 24h 37°C, inhibition zone diameter
Protocol: (§2) E. coli (ATCC 8739) and clinical isolates of E. coli (E1, E9, E12, E14, E16, and E18) were stored at the Animal Biochemical Laboratory of Shanxi Agricultural University and grown in Luria-Bertani (LB) broth as previously reported ([Zhao et al., 2021]). Circular 6 mm paper pieces were prepared with filter paper and autoclaved for sterilization. […] Then, 0.5 mL of antibiotic solution was added to 100 sterilized papers. Subsequently, the paper pieces were fully infiltrated and dried in a vacuum drying oven to produce antibiotic susceptibility papers. The E. coli strain was retrieved from the -20°C freezer and activated by incubating it on LB agar media at 37°C for 24h. Individual colonies were selected and transferred to LB liquid media. Thereafter, the E. coli suspension was obtained by shaking at 37°C and 160 r/min for 18h. The obtained suspension was centrifuged at 5000 r/min for 5min, after which the supernatant was discarded, and the bacteria were resuspended in fresh medium to a concentration of 1×10^6 CFU/mL. Two hundred microliters of the bacterial suspension mentioned above was spread evenly onto LB agar medium. Then, the antibiotic susceptibility papers were placed on the medium surface using sterile tweezers. After 24h of incubation at 37°C, the diameter of the inhibition zone was measured to determine the susceptibility of E. coli to antibiotics.

[11] = test system: E. coli clinical isolate E18; assay: Drug-sensitivity test (paper disc, inhibition zone); assay type: cell-based, Escherichia coli; parameters: key: R: resistant strains; I: intermediate strains; S: sensitive strains; details: 6 mm antibiotic paper on LB agar, 1×10^6 CFU/mL, 24h 37°C, inhibition zone diameter
Protocol: as §2

[12] = test system: E. coli clinical isolate E9; assay: as above; assay type: cell-based, Escherichia coli; parameters: key: R: resistant strains; I: intermediate strains; S: sensitive strains; details: 6 mm antibiotic paper on LB agar, 1×10^6 CFU/mL, 24h 37°C, inhibition zone diameter
Protocol: as §2

E. coli (ATCC 8739) [13] = assay: as above; assay type: cell-based, Escherichia coli; parameters: key: R: resistant strains; I: intermediate strains; S: sensitive strains; details: 6 mm antibiotic paper on LB agar, 1×10^6 CFU/mL, 24h 37°C, inhibition zone diameter
Protocol: as §2

[14] = test system: E. coli clinical isolate E14; assay: as above; assay type: cell-based, Escherichia coli; parameters: key to Drug sensitivity of E. coli E14: R: resistant strains; I: intermediate strains; S: sensitive strains; details: 6 mm antibiotic paper on LB agar, 1×10^6 CFU/mL, 24h 37°C, inhibition zone diameter
Protocol: as §2

[15] = test system: 6 E. coli strains (E1, E9, E12, E14, E16, E18); assay type: cell-based, Escherichia coli; details: paper disc test
Protocol: as §2

[16] = test system: E. coli clinical isolate E12; assay: Drug-sensitivity test (paper disc, inhibition zone); assay type: cell-based, Escherichia coli; parameters: key to Drug sensitivity of E. coli E12: R: resistant strains; I: intermediate strains; S: sensitive strains; details: 6 mm antibiotic paper on LB agar, 1×10^6 CFU/mL, 24h 37°C, inhibition zone diameter
Protocol: as §2

[17] = test system: E. coli clinical isolate E16; assay: as above; assay type: cell-based, Escherichia coli; parameters: key to Drug sensitivity of E. coli E16: R: resistant strains; I: intermediate strains; S: sensitive strains; details: 6 mm antibiotic paper on LB agar, 1×10^6 CFU/mL, 24h 37°C, inhibition zone diameter
Protocol: as §2

RFGRFLRKIRRMRLK [C2-2] was tested, and the “MBC against E. coli E1” value ([1]; 50 μL from fully inhibited wells plated on LB agar, colonies counted after 24h 37°C) was 8 µg/mL, the “MIC against E. coli E1” value ([1]; microbroth dilution, 1×10^6 CFU/mL, 37°C 18h, turbidity) was 4 µg/mL and the “MBC range over E. coli strains” value [2] was 2 to 8 µg/mL. The “MIC range over E. coli strains” value [2] was 2 to 8 µg/mL, the “MIC against E. coli E12” value ([3]; clinical isolate E12, 18 h) was 2 µg/mL and the “MBC against E. coli E12” value ([3]; clinical isolate E12, 24 h) was 2 µg/mL. For the same substance, the “MIC against E. coli E16” value ([4]; clinical isolate E16, 18 h) was 8 µg/mL, the “MBC against E. coli E16” value ([4]; clinical isolate E16, 24 h) was 8 µg/mL and the “MIC against E. coli E18” value ([5]; clinical isolate E18, 18 h) was 4 µg/mL. For the same substance, the “MBC against E. coli E18” value ([5]; clinical isolate E18, 24 h) was 4 µg/mL, the “MIC against E. coli E9” value ([6]; clinical isolate E9, 18 h) was 2 µg/mL and the “MBC against E. coli E9” value ([6]; clinical isolate E9, 24 h) was 2 µg/mL. The “MIC against E. coli E14” value ([7]; clinical isolate E14, 18 h) was 8 µg/mL, the “MBC against E. coli E14” value ([7]; clinical isolate E14, 24 h) was 8 µg/mL and the “MIC against E. coli ATCC 8739” value (E. coli (ATCC 8739) [8]; ATCC 8739, 18 h) was 8 µg/mL. The “MBC against E. coli ATCC 8739” value (E. coli (ATCC 8739) [8]; ATCC 8739, 24 h) was 8 µg/mL, the “MIC against E. coli (ATCC 8739), Salt Stability CaCl2 (2.5 mM)” value (E. coli (ATCC 8739) [9]) was 4 µg/mL and the “MIC against E. coli (ATCC 8739), Salt Stability KCl (4.5 mM)” value (E. coli (ATCC 8739) [9]) was 0.5 µg/mL. The “MIC against E. coli (ATCC 8739), Salt Stability MgCl2 (1 mM)” value (E. coli (ATCC 8739) [9]) was 0.5 µg/mL, the “MIC against E. coli (ATCC 8739), Salt Stability NaCl (150 mM)” value (E. coli (ATCC 8739) [9]) was 0.5 µg/mL and the “MIC against E. coli (ATCC 8739), Thermal Stability 0°C” value (E. coli (ATCC 8739) [9]) was 8 µg/mL. For the same substance, the “MIC against E. coli (ATCC 8739), Thermal Stability 37°C” value (E. coli (ATCC 8739) [9]) was 8 µg/mL and the “MIC against E. coli (ATCC 8739), Thermal Stability 100°C” value (E. coli (ATCC 8739) [9]) was 8 µg/mL.

penicillin was tested, and the “Drug sensitivity of E. coli E1” value [10] was “R”, the “Drug sensitivity of E. coli E18” value [11] was “R” and the “Drug sensitivity of E. coli E9” value [12] was “R”. For the same substance, the “Drug sensitivity of E. coli ATCC 8739” value (E. coli (ATCC 8739) [13]) was “S”, the “Drug sensitivity of E. coli E14” value [14] was “R” and the “Resistance of the 6 clinical E. coli strains (in words)” value [15] was “resistant”. For the same substance, the “Drug sensitivity of E. coli E12” value [16] was “R” and the “Drug sensitivity of E. coli E16” value [17] was “R”.

— paper PMC11133627, “CATH-2-derived antimicrobial peptide inhibits multidrug-resistant Escherichia coli infection in chickens” (Frontiers in Cellular and Infection Microbiology, 2024)
